Experiments:
HIV-1 mutant L100I = experiment: microbe, parasite or virus in culture; details: Human immunodeficiency virus 1, MT4, read-out: EC50 L100I
HIV-1 mutant K103N = experiment: microbe, parasite or virus in culture; details: Human immunodeficiency virus 1, MT4, read-out: EC50 K103N
[1] = Cytotoxicity in uninfected; details: human, mock-infected (uninfected) MT-4 cells, CC50, uninfected MT-4 cells, MTT
MT-4 cells = experiment: Cytotoxicity in uninfected; details: uninfected MT-4 cells, MTT
WT HIV-1 [2] = experiment: microbe, parasite or virus in culture; details: Human immunodeficiency virus 1, MT4, read-out: WT EC50
[3] = Liver microsomal stability, dog; type: in vitro ADME
mice = experiment: Acute toxicity assay and HE staining in healthy mice; type: in vivo
WT HIV-1 [4] = details: Selectivity index CC50/EC50 (WT)
HIV-1 mutant Y188L = experiment: microbe, parasite or virus in culture; details: Human immunodeficiency virus 1, MT4, read-out: EC50 Y188L
[5] = Liver microsomal stability, monkey; type: in vitro ADME
[6] = In vivo pharmacokinetics in Sprague-Dawley rats; details: male, rat, plasma
hERG = hERG (Homo sapiens, UniProt Q12809); experiment: hERG channel Qpatch assay in CHO-hERG cells; type: cell-based; details: at 40 μmol/L
WT HIV-1 RT = WT HIV-1 RT (Human immunodeficiency virus type 1 group M subtype B, UniProt P03366); experiment: biochemical
[7] = Liver microsomal stability, human; type: in vitro ADME
HIV-1 mutant E138K = experiment: microbe, parasite or virus in culture; details: Human immunodeficiency virus 1, MT4, read-out: EC50 E138K
[8] = MF%>70% excellent, 30-70% good, <30% poor

hERG, sequence (Q12809 whole entry): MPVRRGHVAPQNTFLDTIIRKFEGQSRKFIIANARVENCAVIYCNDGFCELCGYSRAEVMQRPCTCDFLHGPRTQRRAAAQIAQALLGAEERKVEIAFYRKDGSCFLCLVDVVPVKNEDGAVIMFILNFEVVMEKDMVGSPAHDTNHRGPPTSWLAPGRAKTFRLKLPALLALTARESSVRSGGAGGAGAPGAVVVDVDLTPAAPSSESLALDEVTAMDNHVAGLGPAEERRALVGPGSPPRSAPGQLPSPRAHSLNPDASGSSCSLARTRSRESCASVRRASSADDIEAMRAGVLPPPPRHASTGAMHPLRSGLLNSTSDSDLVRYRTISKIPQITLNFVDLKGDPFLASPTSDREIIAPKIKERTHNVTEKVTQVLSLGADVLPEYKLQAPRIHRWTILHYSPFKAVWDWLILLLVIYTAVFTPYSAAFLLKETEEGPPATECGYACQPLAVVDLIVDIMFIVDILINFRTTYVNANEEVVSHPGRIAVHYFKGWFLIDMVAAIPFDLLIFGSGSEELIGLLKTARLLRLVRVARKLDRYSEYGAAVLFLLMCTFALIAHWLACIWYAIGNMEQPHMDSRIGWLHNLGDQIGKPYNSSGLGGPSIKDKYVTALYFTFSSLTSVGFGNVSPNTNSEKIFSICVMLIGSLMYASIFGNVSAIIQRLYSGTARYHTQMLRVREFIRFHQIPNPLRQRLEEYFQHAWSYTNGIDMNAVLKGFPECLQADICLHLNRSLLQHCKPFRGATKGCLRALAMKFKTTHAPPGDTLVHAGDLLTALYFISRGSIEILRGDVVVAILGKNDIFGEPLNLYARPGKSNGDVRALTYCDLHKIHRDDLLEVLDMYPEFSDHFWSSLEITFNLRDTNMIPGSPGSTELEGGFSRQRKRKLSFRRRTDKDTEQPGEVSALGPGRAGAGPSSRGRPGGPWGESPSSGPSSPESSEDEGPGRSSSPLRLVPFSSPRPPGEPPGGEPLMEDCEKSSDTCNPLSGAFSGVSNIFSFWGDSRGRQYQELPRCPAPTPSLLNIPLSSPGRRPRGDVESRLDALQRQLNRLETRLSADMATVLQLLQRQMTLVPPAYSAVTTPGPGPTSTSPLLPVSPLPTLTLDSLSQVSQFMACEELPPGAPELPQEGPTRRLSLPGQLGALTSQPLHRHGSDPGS

SMILES: N#Cc1ccc(Nc2ncc(CO)c(Oc3c(F)cc(-c4ccc(C#N)cc4)cc3F)n2)cc1 [9g, 4′-((2-((4-Cyanophenyl)amino)-5-(hydroxymethyl)pyrimidin-4-yl)oxy)-3′,5′-difluoro-[1,1′-biphenyl]-4-carbonitrile]
- EC50 (HIV-1 mutant L100I): 8.2 ± 1.4 nM
- EC50 (HIV-1 mutant K103N): 1.9 ± 0.2 nM
- CC50 at 5 days [1]: 264000 nM
- CC50 (MT-4 cells): 225000 ± 3900 nM
- EC50 (WT HIV-1 [2]): 0.9 ± 0.1 nM
- MF [3, 8]: 42.2%
- half-life ([3]; dog liver microsomes): 1.19 h
- CLint scaled ([3]; dog liver microsomes, Clint(hep)): 179 mL/min/kg
- CLint scaled ([3]; dog liver microsomes, Clint(mic), dog liver microsome): 29.5 mL/min/kg
- body weight (mice; mice (male and female), 2 g/kg, within two weeks): increased gradually
- behavioral abnormalities (mice; mice, 2 g/kg): No behavioral abnormalities
- pathological injury (HE staining) (mice; mice, 2 g/kg, six organs): no obvious pathological injury
- tolerability (mice; mice, single oral administration of 2 g/kg): well tolerated
- SI (WT HIV-1 [4]): 256,438
- EC50 (HIV-1 mutant Y188L): 161 ± 27.6 nM
- MF [5, 8]: 28.1%
- half-life ([5]; monkey liver microsomes): 0.435 h
- CLint scaled ([5]; monkey liver microsomes, Clint(hep)): 122 mL/min/kg
- CLint scaled ([5]; monkey liver microsomes, Clint(mic), monkey liver microsome): 80.5 mL/min/kg
- Cmax ([6]; iv, 1 mg/kg): 296 ± 79.4 ng/mL
- Tmax ([6]; iv, 1 mg/kg): 0.08 h
- half-life ([6]; iv, 1 mg/kg): 1.5 ± 0.14 h
- AUC ([6]; iv, 1 mg/kg, AUC0‒t, 1.0 mg/kg i.v.): 244 ± 24.5 ng·h/mL
- AUC ([6]; iv, 1 mg/kg, AUC0‒∞, 1.0 mg/kg i.v.): 247 ± 25.8 ng·h/mL
- MRT ([6]; iv, 1 mg/kg, MRT0‒t, 1.0 mg/kg i.v.): 1.19 ± 0.16 h
- MRT ([6]; iv, 1 mg/kg, MRT0‒∞, 1.0 mg/kg i.v.): 1.33 ± 0.21 h
- Cmax ([6]; po, 10 mg/kg): 39.3 ± 8.04 ng/mL
- Tmax ([6]; po, 10 mg/kg): 0.83 ± 0.29 h
- bioavailability ([6]; po, 10 mg/kg): 8.01 ± 0.02%
- half-life ([6]; po, 10 mg/kg): 5.21 ± 3.02 h
- AUC ([6]; po, 10 mg/kg, AUC0‒t, 10.0 mg/kg p.o.): 159 ± 48.7 ng·h/mL
- AUC ([6]; po, 10 mg/kg, AUC0‒∞, 10.0 mg/kg p.o.): 198 ± 38.6 ng·h/mL
- MRT ([6]; po, 10 mg/kg, MRT0‒t, 10.0 mg/kg p.o.): 3.91 ± 2.38 h
- MRT ([6]; po, 10 mg/kg, MRT0‒∞, 10.0 mg/kg p.o.): 6.8 ± 2.79 h
- inhibition of hERG (hERG): no significant inhibition
- IC50 (WT HIV-1 RT): 21 ± 1 nM
- half-life ([7]; human, human liver microsomes): 45.9 h
- CLint scaled ([7]; human, human liver microsomes, Clint(hep)): 56.2 mL/min/kg
- CLint scaled ([7]; human, human liver microsomes, Clint(mic), human liver microsome): 0.763 mL/min/kg
- MF ([7]; human, MF%>70% excellent, 30-70% good, <30% poor): 96.3%
- t1/2 in human liver microsomes, fold longer than that of 5 ([7]; relative to 5 (t1/2 = 96 min)): about 29 fold
- EC50 (HIV-1 mutant E138K): 3.5 ± 0.8 nM

SMILES: N#Cc1ccc(Nc2ncc(CO)c(Oc3c(F)cc(-c4ccncc4)cc3F)n2)cc1 [9l, 4-((4-(2,6-Difluoro-4-(pyridin-4-yl)phenoxy)-5-(hydroxymethyl)pyrimidin-2-yl)amino)benzonitrile]
- EC50 (HIV-1 mutant L100I): 22.2 ± 6.2 nM
- EC50 (HIV-1 mutant K103N): 3 ± 0.3 nM
- CC50 at 5 days [1]: 128000 ± 5500 nM
- EC50 (WT HIV-1 [2]): 0.9 nM
- SI (WT HIV-1 [4]): 138,219
- EC50 (HIV-1 mutant Y188L): 720 ± 272 nM
- EC50 (HIV-1 mutant E138K): 13.6 ± 1.2 nM

SMILES: Cc1cc(-c2ccncc2)cc(C)c1Oc1nc(Nc2ccc(C#N)cc2)ncc1CO [9h, 4-((4-(2,6-Dimethyl-4-(pyridin-4-yl)phenoxy)-5-(hydroxymethyl)pyrimidin-2-yl)amino)benzonitrile]
- EC50 (HIV-1 mutant L100I): 323 ± 44.5 nM
- EC50 (HIV-1 mutant K103N): 20.1 ± 3 nM
- CC50 at 5 days [1]: 221000 ± 12500 nM
- EC50 (WT HIV-1 [2]): 7.1 ± 3 nM
- SI (WT HIV-1 [4]): 30,868
- EC50 (HIV-1 mutant Y188L): 1580 ± 103 nM
- EC50 (HIV-1 mutant E138K): 38.9 ± 4.1 nM

SMILES: O=C1Nc2ccc(Cl)cc2[C@@](C#CC2CC2)(C(F)(F)F)O1 [EFV, efavirenz, reference compound]
- EC50 (HIV-1 mutant L100I): 440 ± 70 nM
- EC50 (HIV-1 mutant K103N): 102 ± 50 nM
- CC50 at 5 days [1]: > 6300 nM
- EC50 (WT HIV-1 [2]): 7 nM
- EC50 (HIV-1 mutant Y188L): 290 ± 40 nM
- EC50 (HIV-1 mutant E138K): 6 nM

SMILES: COc1cc(-c2ccncc2)ccc1Oc1nc(Nc2ccc(C#N)cc2)ncc1CO [9i, 4-((5-(Hydroxymethyl)-4-(2-methoxy-4-(pyridin-4-yl)phenoxy)pyrimidin-2-yl)amino)benzonitrile]
- EC50 (HIV-1 mutant L100I): 560 ± 137 nM
- EC50 (HIV-1 mutant K103N): 95.6 ± 17.6 nM
- CC50 at 5 days [1]: 30500 ± 3400 nM
- EC50 (WT HIV-1 [2]): 18.2 ± 6.8 nM
- SI (WT HIV-1 [4]): 1679
- EC50 (HIV-1 mutant Y188L): 1750 ± 123 nM
- EC50 (HIV-1 mutant E138K): 217 ± 18.4 nM

SMILES: N#Cc1ccc(Nc2ncc(CO)c(Oc3ccc(-c4ccncc4)cc3Cl)n2)cc1 [9k, 4-((4-(2-Chloro-4-(pyridin-4-yl)phenoxy)-5-(hydroxymethyl)pyrimidin-2-yl)amino)benzonitrile]
- EC50 (HIV-1 mutant L100I): 327 ± 54.8 nM
- EC50 (HIV-1 mutant K103N): 35.4 ± 12.3 nM
- CC50 at 5 days [1]: 264000 ± 10200 nM
- EC50 (WT HIV-1 [2]): 4.9 ± 0.9 nM
- SI (WT HIV-1 [4]): 53,539
- EC50 (HIV-1 mutant Y188L): 43000 nM
- EC50 (HIV-1 mutant E138K): 45.9 ± 5.9 nM

SMILES: Cc1cc(-c2ccc(C#N)cc2)ccc1Oc1nc(Nc2ccc(C#N)cc2)ncc1CO [9b, 4′-((2-((4-Cyanophenyl)amino)-5-(hydroxymethyl)pyrimidin-4-yl)oxy)-3′-methyl-[1,1′-biphenyl]-4-carbonitrile]
- EC50 (HIV-1 mutant L100I): 18.1 ± 3.4 nM
- EC50 (HIV-1 mutant K103N): 2.9 ± 0.1 nM
- CC50 at 5 days [1]: > 46200 nM
- EC50 (WT HIV-1 [2]): 1.2 ± 0.1 nM
- SI (WT HIV-1 [4]): >38,095
- EC50 (HIV-1 mutant Y188L): 144 ± 25.9 nM
- IC50 (WT HIV-1 RT): 27 ± 2 nM
- EC50 (HIV-1 mutant E138K): 3.6 ± 0.7 nM

SMILES: N#Cc1ccc(Nc2ncc(CO)c(Oc3ccc(-c4ccncc4)cc3F)n2)cc1 [9j, 4-((4-(2-Fluoro-4-(pyridin-4-yl)phenoxy)-5-(hydroxymethyl)pyrimidin-2-yl)amino)benzonitrile]
- EC50 (HIV-1 mutant L100I): 327 ± 44.9 nM
- EC50 (HIV-1 mutant K103N): 35.1 ± 8.1 nM
- CC50 at 5 days [1]: > 48400 nM
- EC50 (WT HIV-1 [2]): 4.7 ± 0.7 nM
- SI (WT HIV-1 [4]): >10,256
- EC50 (HIV-1 mutant Y188L): > 48400 nM
- EC50 (HIV-1 mutant E138K): 42.4 ± 6.7 nM
